Assay results from patent US11919855B2, “Substituted pyrrolidones and piperidones as small molecule inhibitors of EZH2 and EED protein binding” (Northwestern University, priority 2021, dated 2024).

Target: EED-EZH2 (Homo sapiens (Human), UniProt O75530)
Assay: EED-EZH2 AlphaScreen assay
Type: binding
Details: 8.7 nM EZH2, 5.0 nM EED, read-out: IC50 Potency Code
Protocol: Biological activity of exemplary substituted pyrrolidones and piperidones was determined by the EED-EZH2 AlphaScreen assay according the following methodology.
EZH2 (non-complexed), His-GST-tags
Anti-FLAG AlphaLISA Acceptor Beads
AlphaScreen GSH Donor Beads
Assay Protocol (Calculated for 384 Wells or 1 Plate)
• 1. Thaw EED and EZH2 proteins on ice. • 2. Prepare 1× HMT Buffer 2: • 1.5 mL of 4× HMT Buffer 2+4.5 mL ddH2O. • 3. Prepare 1.2× EED-EZH2 solution in 1× HMT Buffer 2: 3.4 mL total • 2.1 uL of EED (0.41 mg/mL, 8.04 uM, 1:1608 dilution)+14 uL of EZH2 (0.24 mg/mL, 2.11 uM, 1:243 dilution)+3.384 mL of 1× HMT Buffer 2 • 4. Prepare 1.2× EZH2 solution in 1× HMT Buffer 2 (positive control): 0.168 mL total • 0.69 uL of EZH2 (0.24 mg/mL, 2.11 uM, 1:243 dilution)+167 uL of 1× HMT Buffer 2 • 5. Add 10 μL of 1.2× EED-EZH2 or 1.2× EZH2 solution to each well. • 6. Add compounds in DMSO via Echo transfer and 30 nL DMSO for control wells. • 7. Centrifuge at 15,000 rpm for 10 seconds and allow to incubate at rt for 1 hour. Step Two • 1. Prepare 6× Anti-FLAG and GSH Donor beads in 1× HMT Buffer 2 in the dark: 1 mL total • 10 uL of Anti-FLAG (1:100 dilution)+5 uL of GSH Donor (1:200 dilution)+985 uL of 1× HMT Buffer 2 • 2. Add 2 μL of bead solution to each well. • 3. Centrifuge at 15,000 rpm for 10 seconds and allow to incubate at rt for 1 hour in the dark. • 4. Read plate. Final Concentrations: • 12 μL volume per well • 8.7 nM EZH2 • 5.0 nM EED • DMSO<0.5% Calculations: • 1. Average EZH2 only wells (positive control) and subtract from all other wells. • 2. Average EED-EZH2 only wells (negative control) to indicate 100% signal or 0% inhibition. • 3. Normalize each well to the average 100% signal from step 2. • 4. Report either as normalized % inhibition or normalized % signal. • Use GraphPad to Calculate IC50.

Sequence of EED-EZH2 (O75530 2-441): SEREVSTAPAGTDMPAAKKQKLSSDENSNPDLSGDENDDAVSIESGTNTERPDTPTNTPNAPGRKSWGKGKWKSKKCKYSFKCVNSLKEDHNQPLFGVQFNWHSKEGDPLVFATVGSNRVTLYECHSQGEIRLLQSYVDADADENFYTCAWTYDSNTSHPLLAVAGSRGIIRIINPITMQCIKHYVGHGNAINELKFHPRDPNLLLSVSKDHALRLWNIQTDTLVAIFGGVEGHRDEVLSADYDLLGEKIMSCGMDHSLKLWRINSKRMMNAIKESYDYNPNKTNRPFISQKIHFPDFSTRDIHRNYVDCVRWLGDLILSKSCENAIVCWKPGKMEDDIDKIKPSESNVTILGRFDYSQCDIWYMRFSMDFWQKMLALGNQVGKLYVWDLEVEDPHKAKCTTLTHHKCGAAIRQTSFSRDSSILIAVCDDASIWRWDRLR

SMILES	IC50 [µM]
Cc1ccc(O)c(C(=O)N[C@@H]2CC(=O)N(Cc3ccc(Cl)c(Cl)c3)C2)c1 [NUCC-0202977]	10 to 50
Cc1ccc(O)c(C(=O)N[C@@H]2CC(=O)N(Cc3ccc(C(F)(F)F)cc3)C2)c1 [NUCC-0202978]	> 50
Cc1ccc(O)c(C(=O)N[C@H]2CC(=O)N(C3C=Cc4ccccc43)C2)c1 (some centres unmarked) [NUCC-0202979]	10 to 50
O=C(N[C@H]1CC(=O)N(Cc2ccccc2C(F)(F)F)C1)c1cc(C(F)(F)F)ccc1O [NUCC-0223624]	< 1
O=C(NC1CC(=O)N(Cc2cccc(C(F)(F)F)c2)C1)c1cc(C(F)(F)F)ccc1O (centres unmarked) [NUCC-0223625]	< 1
CC1(C)C(=O)N(Cc2ccccc2C(F)(F)F)C[C@H]1NC(=O)c1cc(C(F)(F)F)ccc1O [NUCC-0223626]	1 to 10
O=C(NCC1CC(=O)N(Cc2ccccc2C(F)(F)F)C1)c1cc(C(F)(F)F)ccc1O (centres unmarked) [NUCC-0223627]	< 1
O=C(N[C@@H]1CC(=O)N(Cc2ccccc2C(F)(F)F)C1)c1cc(C(F)(F)F)ccc1O [NUCC-0223628]	< 1
CC1(C)C(=O)N(Cc2ccccc2C(F)(F)F)CC1NC(=O)c1cc(C(F)(F)F)ccc1O (centres unmarked) [NUCC-0223629]	10 to 50
O=C1CC(Nc2ncnc3ccc(C(F)(F)F)cc23)CN1Cc1ccccc1C(F)(F)F (centres unmarked) [NUCC-0223632]	> 50
Nc1ccc(C(F)(F)F)cc1C(=O)NC1CC(=O)N(Cc2ccccc2C(F)(F)F)C1 (centres unmarked) [NUCC-0223633]	> 50
Nc1ccc(F)cc1C(=O)NC1CC(=O)N(Cc2ccccc2C(F)(F)F)C1 (centres unmarked) [NUCC-0223634]	> 50
Nc1ccc(Cl)cc1C(=O)NC1CC(=O)N(Cc2ccccc2C(F)(F)F)C1 (centres unmarked) [NUCC-0223635]	> 50
O=C(NC1CCC(=O)N(Cc2ccccc2C(F)(F)F)C1)c1cc(C(F)(F)F)ccc1O (centres unmarked) [NUCC-0223818]	1 to 10
O=C(NC1CCC(=O)N(Cc2ccccc2C(F)(F)F)C1)c1cc(Cl)ccc1O (centres unmarked) [NUCC-0223819]	1 to 10
O=C(NC1CCC(=O)N(Cc2ccccc2C(F)(F)F)C1)c1ccc(C(F)(F)F)cc1O (centres unmarked) [NUCC-0223820]	> 50
O=C(NC1CCN(Cc2ccccc2C(F)(F)F)C1=O)c1cc(C(F)(F)F)ccc1O (centres unmarked) [NUCC-0223821]	< 1
O=C(NC1CCN(Cc2ccccc2C(F)(F)F)C1=O)c1ccc(C(F)(F)F)cc1O (centres unmarked) [NUCC-0223822]	> 50

SMILES	IC50 [µM]
O=C(NC1CCN(Cc2ccccc2C(F)(F)F)C1=O)c1cccc(C(F)(F)F)c1O (centres unmarked) [NUCC-0223823]	> 50
O=C(NC1CCN(Cc2ccccc2C(F)(F)F)C1=O)c1cc(Cl)ccc1O (centres unmarked) [NUCC-0223824]	> 50
O=C1C(Nc2ncnc3ccc(C(F)(F)F)cc23)CCN1Cc1ccccc1C(F)(F)F (centres unmarked) [NUCC-0223825]	> 50
O=C1CCC(Nc2ncnc3ccc(C(F)(F)F)cc23)CN1Cc1ccccc1C(F)(F)F (centres unmarked) [NUCC-0223826]	> 50
O=C(NC1CCN(Cc2cccc(C(F)(F)F)c2)C1=O)c1cc(C(F)(F)F)ccc1O (centres unmarked) [NUCC-0226232]	1 to 10
O=C(NCC1CC(=O)N(Cc2cccc(C(F)(F)F)c2)C1)c1cc(C(F)(F)F)ccc1O (centres unmarked) [NUCC-0226233]	< 1
O=C(N[C@H]1CC(=O)N(Cc2cccc(C(F)(F)F)c2)C1)c1cc(C(F)(F)F)ccc1O [NUCC-0226234]	1 to 10
O=C(N[C@@H]1CC(=O)N(Cc2cccc(C(F)(F)F)c2)C1)c1cc(C(F)(F)F)ccc1O [NUCC-0226235]	1 to 10
CC1(C)C(=O)N(Cc2cccc(C(F)(F)F)c2)CC1NC(=O)c1cc(C(F)(F)F)ccc1O (centres unmarked) [NUCC-0226236]	< 1
COC(=O)c1ccccc1CN1CC(NC(=O)c2cc(C(F)(F)F)ccc2O)CCC1=O (centres unmarked) [NUCC-0226237]	1 to 10
O=C(N[C@H]1CCN(Cc2cccc(C(F)(F)F)c2)C1=O)c1cc(C(F)(F)F)ccc1O [NUCC-0226238]	1 to 10
O=C(NCC1CCC(=O)N1Cc1cccc(C(F)(F)F)c1)c1cc(C(F)(F)F)ccc1O (centres unmarked) [NUCC-0226240]	1 to 10
O=C(NC[C@@H]1CCC(=O)N1Cc1cccc(C(F)(F)F)c1)c1cc(C(F)(F)F)ccc1O [NUCC-0226241]	1 to 10
O=C(NC[C@H]1CCC(=O)N1Cc1cccc(C(F)(F)F)c1)c1cc(C(F)(F)F)ccc1O [NUCC-0226242]	1 to 10
O=C(NC[C@H]1CC(=O)N(Cc2cccc(F)c2)C1)c1cc(C(F)(F)F)ccc1O [NUCC-0226243]	< 1
O=C(NC[C@@H]1CC(=O)N(Cc2cccc(C(F)(F)F)c2)C1)c1cc(C(F)(F)F)ccc1O [NUCC-0226244]	< 1
O=C(N[C@@H]1CCN(Cc2cccc(C(F)(F)F)c2)C1=O)c1cc(C(F)(F)F)ccc1O [NUCC-0226245]	1 to 10
